Data published in patent US20240239781A1, “1H-PYRAZOLE DERIVATIVES AS SIGMA LIGANDS” (ACONDICIONAMIENTO TARRASENSE, priority 2021, published 2024).

How the values were obtained:
human σ1 receptor = biological target: T1, human σ1 receptor (Homo sapiens, UniProt Q99720); assay: Human σ1 receptor radioligand assay ([3H](+)-pentazocine, transfected HEK-293 membranes); conditions: class scale, read-out: Binding σ-1 Ki
T1 construct: expressed in transfected cells; host or cells: HEK-293
Summary of the method: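 Membranes (7 μg) from transfected HEK-293 cells were incubated with 5 nM [3H](+)-pentazocine in 50 mM Tris-HCl, pH 8, for 120 minutes at 37° C, with 10 μM haloperidol defining non-specific binding. Bound radioactivity was filtered and counted by scintillation. Results are % inhibition at 1 or 10 μM or Ki from five concentrations.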

human σ2/TMEM97 receptor = biological target: T2, human σ2/TMEM97 receptor (Homo sapiens, UniProt Q5BJF2); assay: Binding assay to human σ2/TMEM97 receptor ([3H]-DTG, transfected HEK-293 membranes); conditions: class scale, read-out: Binding σ-2 Ki
T2 construct: expressed in transfected cells; host or cells: HEK-293
T2 sequence (Q5BJF2 whole entry): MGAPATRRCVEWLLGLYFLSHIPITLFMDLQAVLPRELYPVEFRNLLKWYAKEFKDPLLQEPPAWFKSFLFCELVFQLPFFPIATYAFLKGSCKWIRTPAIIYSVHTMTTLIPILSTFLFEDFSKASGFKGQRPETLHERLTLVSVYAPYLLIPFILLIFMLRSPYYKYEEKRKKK
Summary of the method: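 Membranes (15 μg) from transfected HEK-293 incubated 120 min at 25 °C with 10 nM [3H]-DTG in 50 mM Tris-HCl pH 8.0; nonspecific binding with 10 μM haloperidol. Filtration and scintillation counting; % inhibition at 1 or 10 μM, or Ki from five concentrations.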

T1 sequence (Q99720 whole entry): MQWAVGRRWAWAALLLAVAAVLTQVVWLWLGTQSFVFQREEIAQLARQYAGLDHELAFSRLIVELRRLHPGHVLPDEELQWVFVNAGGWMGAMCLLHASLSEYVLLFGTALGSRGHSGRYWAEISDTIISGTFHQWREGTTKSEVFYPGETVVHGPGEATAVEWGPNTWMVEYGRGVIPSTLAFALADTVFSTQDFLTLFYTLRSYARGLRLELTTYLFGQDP

Structure (SMILES)	Ki (human σ1 receptor) [nM]	Ki (human σ2/TMEM97 receptor) [nM]
Cn1nc(-c2cccc(C(F)(F)F)n2)c(C(=O)N2CCC3(CCN(CCC(C)(C)C)CC3)CC2)c1Cl [Example 180, (5-Chloro-1-methyl-3-(6-(trifluoromethyl)111ndecane-2-yl)-1H-pyrazol-4-yl)(9-(3,3-dimethylbutyl)-3,9-diazaspiro[5.5]111ndecane-3-yl)methanone]	100 to 500	< 100
Cc1cc(-c2nn(C)c(Cl)c2C(=O)N2CCCC3(CCN(Cc4ccccc4)CC3)C2)no1 [Example 156, (9-Benzyl-2,9-diazaspiro[5.5]undecan-2-yl)(5-chloro-1-methyl-3-(5-methylisoxazol-3-yl)-1H-pyrazol-4-yl)methanone]	100 to 500	< 100
Cn1nc(-c2ccon2)c(CN2CCCCC(NCCC(C)(C)C)C2)c1Cl (stereo not shown) [Example 33, 1-((5-Chloro-3-(isoxazol-3-yl)-1-methyl-1H-pyrazol-4-yl)methyl)-N-(3,3-dimethylbutyl)azepan-3-amine]	100 to 500	100 to 500
Cc1cc(-c2nn(C)c(Cl)c2CN2CCC3(CCN(CCC(C)(C)C)CC3)CC2=O)no1 [Example 115, 3-((5-Chloro-1-methyl-3-(5-methylisoxazol-3-yl)-1H-pyrazol-4-yl)methyl)-9-(3,3-dimethylbutyl)-3,9-diazaspiro[5.5]undecan-2-one]	100 to 500	< 100
CCn1ccc(-c2nn(C)c(Cl)c2C(=O)N2CCC3(CCN(CCC(C)(C)C)CC3)CC2)n1 [Example 179, (5-Chloro-1′-ethyl-1-methyl-1H,1′H-[3,3′-bipyrazol]-4-yl)(9-(3,3-dimethylbutyl)-3,9-diazaspiro[5.5]undecan-3-yl)methanone]	> 1000	< 100
CC(C)CCNC1CCCCN(Cc2c(-c3cc(C(C)C)on3)nn(C)c2Cl)C1 (stereo not shown) [Example 17, 1-((5-Chloro-3-(5-isopropylisoxazol-3-yl)-1-methyl-1H-pyrazol-4-yl)methyl)-N-isopentylazepan-3-amine]	100 to 500	> 1000
Cc1cc(-c2nn(C)c(Cl)c2CN2CCC[C@H](NCCC(C)C)C2)no1 [Example 6, (S)-1-((5-Chloro-1-methyl-3-(5-methylisoxazol-3-yl)-1H-pyrazol-4-yl)methyl)-N-isopentylpiperidin-3-amine]	100 to 500	> 1000
Cc1cc(-c2nn(C)c(Cl)c2C(=O)N2CCC3(CCN(CC(C)C)CC3)CC2)no1 [Example 89, (5-Chloro-1-methyl-3-(5-methylisoxazol-3-yl)-1H-pyrazol-4-yl)(9-isobutyl-3,9-diazaspiro[5.5]undecan-3-yl)methanone]	> 1000	> 1000
CCn1nc(-c2cc(C)on2)c(C(=O)NCC2CCN(CCC(C)(C)C)CC2)c1Cl [Example 203, 5-Chloro-N-((1-(3,3-dimethylbutyl)piperidin-4-yl)methyl)-1-ethyl-3-(5-methylisoxazol-3-yl)-1H-pyrazole-4-carboxamide]	100 to 500	< 100
Cc1cc(-c2nn(C)c(Cl)c2C(=O)N2CCCC3(CN(CCC(C)(C)C)C3)C2)no1 [Example 193, (5-Chloro-1-methyl-3-(5-methylisoxazol-3-yl)-1H-pyrazol-4-yl)(2-(3,3-dimethylbutyl)-2,6-diazaspiro[3.5]nonan-6-yl)methanone]	500 to 1000	< 100
Cc1cc(-c2nn(C)c(Cl)c2C(=O)N2CCC3(CCC(NCCC(C)(C)C)CC3)CC2)no1 [Example 96, (5-Chloro-1-methyl-3-(5-methylisoxazol-3-yl)-1H-pyrazol-4-yl)(9-((3,3-dimethylbutyl)amino)-3-azaspiro[5.5]undecan-3-yl)methanone]	> 1000	100 to 500
Cc1cc(-c2nn(C)c(Cl)c2CN2CCCC(C3(NCCC(C)C)CC3)C2)no1 (stereo not shown) [Example 63, 1-(1-((5-Chloro-1-methyl-3-(5-methylisoxazol-3-yl)-1H-pyrazol-4-yl)methyl)piperidin-3-yl)-N-isopentylcyclopropanamine]	< 100	100 to 500
Cc1cc(-c2nn(C)c(Cl)c2CN2CCC3(C2)CN(CCC(C)(C)C)C3)no1 [Example 52, 3-(5-Chloro-4-((2-(3,3-dimethylbutyl)-2,6-diazaspiro[3.4]octan-6-yl)methyl)-1-methyl-1H-pyrazol-3-yl)-5-methylisoxazole]	< 100	< 100
Cc1cc(-c2nn(C)c(Cl)c2CN2CC3(CCN(CCC(C)(C)C)CC3)CC2=O)no1 [Example 116, 2-((5-Chloro-1-methyl-3-(5-methylisoxazol-3-yl)-1H-pyrazol-4-yl)methyl)-8-(3,3-dimethylbutyl)-2,8-diazaspiro[4.5]decan-3-one]	100 to 500	< 100
Cc1cc(-c2nn(C)c(Cl)c2C(=O)N2CCC[C@H](NCCC(C)C)C2)no1 [Example 109, (S)-(5-Chloro-1-methyl-3-(5-methylisoxazol-3-yl)-1H-pyrazol-4-yl)(3-(isopentylamino)piperidin-1-yl)methanone]	> 1000	> 1000
CCn1nc(-c2ccon2)c(C(=O)NC2CCC3(CC2)CCN(CCC(C)(C)C)CC3)c1Cl [Example 142, 5-Chloro-N-(3-(3,3-dimethylbutyl)-3-azaspiro[5.5]undecan-9-yl)-1-ethyl-3-(isoxazol-3-yl)-1H-pyrazole-4-carboxamide]	< 100	< 100
Cc1cc(-c2nn(C)c(Cl)c2CN2C[C@H](CNCCC(C)(C)C)[C@@H](C)C2)no1 [Example 78, N-(((3S,4R)-1-((5-Chloro-1-methyl-3-(5-methylisoxazol-3-yl)-1H-pyrazol-4-yl)methyl)-4-methylpyrrolidin-3-yl)methyl)-3,3-dimethylbutan-1-amine]	100 to 500	< 100
Cc1cc(-c2nn(C)c(Cl)c2CN2CC[C@@H](CNCCC(C)(C)C)C2)no1 [Example 73, (S)-N-((1-((5-Chloro-1-methyl-3-(5-methylisoxazol-3-yl)-1H-pyrazol-4-yl)methyl)pyrrolidin-3-yl)methyl)-3,3-dimethylbutan-1-amine]	100 to 500	< 100
CCCCNC1CCCCN(Cc2c(-c3cc(C)on3)nn(C)c2Cl)C1 (stereo not shown) [Example 9, N-Butyl-1-((5-chloro-1-methyl-3-(5-methylisoxazol-3-yl)-1H-pyrazol-4-yl)methyl)azepan-3-amine]	> 1000	500 to 1000
CCn1nc(-c2cccc(C(F)(F)F)n2)c(C(=O)N2CCC3(CCN(CCC(C)(C)C)CC3)CC2)c1Cl [Example 199, (5-Chloro-1-ethyl-3-(6-(trifluoromethyl)pyridin-2-yl)-1H-pyrazol-4-yl)(9-(3,3-dimethylbutyl)-3,9-diazaspiro[5.5]undecan-3-yl)methanone]	100 to 500	< 100

The next lines start with the values.

Ki (human σ1 receptor) [nM]	Ki (human σ2/TMEM97 receptor) [nM]	Structure (SMILES)
500 to 1000	> 1000	Cc1cc(-c2nn(C)c(Cl)c2CN2CCCCC(NCCc3ccccc3)C2)no1 (stereo not shown) [Example 3, 1-((5-Chloro-1-methyl-3-(5-methylisoxazol-3-yl)-1H-pyrazol-4-yl)methyl)-N-phenethylazepan-3-amine]
< 100	< 100	Cn1nc(-c2cccc(C(F)(F)F)n2)c(CN2CC3(CCN(CCC(C)(C)C)CC3)CC2=O)c1Cl [Example 227, 2-((5-Chloro-1-methyl-3-(6-(trifluoromethyl)pyridin-2-yl)-1H-pyrazol-4-yl)methyl)-8-(3,3-dimethylbutyl)-2,8-diazaspiro[4.5]decan-3-one]
500 to 1000	< 100	CCn1nc(-c2ccon2)c(C(=O)N2CC3(CCN(CCC(C)(C)C)CC3)C2)c1Cl [Example 187, (5-Chloro-1-ethyl-3-(isoxazol-3-yl)-1H-pyrazol-4-yl)(7-(3,3-dimethylbutyl)-2,7-diazaspiro[3.5]nonan-2-yl)methanone]
> 1000	100 to 500	Cc1cc(-c2nn(C)c(Cl)c2C(=O)N2CCC3(CCN(CC(=O)N4CCCCC4)CC3)CC2)no1 [Example 112, 2-(9-(5-Chloro-1-methyl-3-(5-methylisoxazol-3-yl)-1H-pyrazole-4-carbonyl)-3,9-diazaspiro[5.5]undecan-3-yl)-1-(piperidin-1-yl)ethanone]
500 to 1000	> 1000	Cc1cc(-c2nn(C)c(Cl)c2CN2CCCCC(NCCC(C)C)C2)no1 (stereo not shown) [Example 2, 1-((5-Chloro-1-methyl-3-(5-methylisoxazol-3-yl)-1H-pyrazol-4-yl)methyl)-N-isopentylazepan-3-amine]
> 1000	100 to 500	Cc1cc(-c2nn(C)c(Cl)c2C(=O)N2CCCCC(NCCC(C)C)C2)no1 (stereo not shown) [Example 84, (5-Chloro-1-methyl-3-(5-methylisoxazol-3-yl)-1H-pyrazol-4-yl)(3-(isopentylamino)azepan-1-yl)methanone]
100 to 500	100 to 500	Cc1cc(-c2nn(C)c(Cl)c2CN2CCC3(CCN(CCC(C)(C)C)CC3)C2=O)no1 [Example 114, 2-((5-Chloro-1-methyl-3-(5-methylisoxazol-3-yl)-1H-pyrazol-4-yl)methyl)-8-(3,3-dimethylbutyl)-2,8-diazaspiro[4.5]decan-1-one]
500 to 1000	100 to 500	CC(C)CCNC1CCCCN(Cc2c(-c3ccon3)nn(C)c2Cl)C1 (stereo not shown) [Example 34, 1-((5-Chloro-3-(isoxazol-3-yl)-1-methyl-1H-pyrazol-4-yl)methyl)-N-isopentylazepan-3-amine]
100 to 500	500 to 1000	Cc1cc(-c2nn(C)c(Cl)c2C(=O)N2CCCCC(N(C)CCC(C)C)C2)no1 (stereo not shown) [Example 111, (5-Chloro-1-methyl-3-(5-methylisoxazol-3-yl)-1H-pyrazol-4-yl)(3-(isopentyl(methyl)amino)azepan-1-yl)methanone]
